Results on two compounds are retold here after US20240091267A1, “PRE-TREATMENT OF MSC WITH PPARB/DELTA AGONIST FOR TREATMENT OF ISCHEMIA-REPERFUSION INJURY” (Universite de Montpellier, priority 2020, published 2024).

Assay [1] has as its system MSC. Description: Specific DNA fragmentation (Cell Death ELISA) in MSC exposed to H2O2-induced oxidative stress. Type of assay: cell-based, mouse. The note with it: then 250 μM H2O2 4 h, vs naive MSC/H2O2. On the procedure:
FIG. 6: Increased resistance to oxidative stress and survival of PPARβ/δ-primed MSC. (A) 48 hours after the seeding step in complete medium, MSC were subjected to H2O2-induced oxidative stress during 4 hours in minimal medium with serum deprivation. Pharmacological preconditioning of MSC using PPARβ/δ agonist or antagonist was performed 24 hours before oxidative stress exposure. At the end of the protocol, cell death or relative gene expression was analyzed measuring specific DNA fragmentation by ELISA and transcript amounts by RT-qPCR. (B): Scatter plot and bars were presented for specific DNA fragmentation quantification measured in MSC treated with H2O2 at various concentrations (0, 100, 150, 250, 500 and 750 μM) for 4 h in minimal medium. Data (normalized by the control value obtained with untreated MSC) were plotted as scatter dot blots and mean±SD for each group of treatment and compared using Kruskal-Wallis (Dunn's post hoc test) and were noted **** for p<0.0001 (250 group, n=11 independent cultures vs 0 group, n=13), ** for p=0.0013 (100 group, n=10 vs 0 group, n=13), ** for p=0.0015 (350 group, n=9 vs 0 group, n=13), **for p=0.0015 (500 group, n=9 vs 0 group, n=13) and * for p=0.0332 (750 group, n=3 vs 0 group, n=13). (C): Scatter plots and bars were presented for specific DNA fragmentation quantification measured in MSC treated with 250 μM of H2O2 pretreated with GW0742 or GSK0660 at 0.1 and 1 μM 24 hours before H2O2 exposure. […]
DNA fragmentation was quantified in vitro on cell lysates with an enzyme-linked immunosorbent assay kit (Cell Death ELISA; Roche Diagnostics) designed to measure of histone-complexed DNA fragments (mono- and oligonucleosomes) out of the cytoplasm of cells after the induction of apoptosis.
To do this, MSC were submitted to an IR-simulated stress in vitro using various concentrations of H2O2 (100, 250, 350, 500 and 750 μM; see the protocol on FIG. 6A) for 4 hours. Apoptosis quantification was assessed by the mean of specific DNA fragmentation measurement for the different groups of treatment. […]

Assay [2] deals with isolated perfused hearts from C57B16 mice. Description: Ex vivo Langendorff ischemia-reperfusion, infarct size, effect of preconditioning duration (Example 3). Set-up: species or system mouse (C57BL/6). Particulars: MSC preconditioned 24 h with 1 μM, 5,000 cells/ml, vs IR.
Assay [3] has as its system TXNIP (Thioredoxin interacting protein). The note with it: neuronal stress; neonatal hypoxic-ischemic injury in rats; cited from earlier work.
The subject of assay [4] is C57B16 mouse hearts subjected to IR injury. The assay can be described thus: Ex vivo Langendorff ischemia-reperfusion, infarct size (Example 2, naive or pretreated MSC). The note with it: MSC 2,500 cells/mL (3.10^5 MSC) pretreated 24 h with GW0742 1 μM; mean±SD. Also on record: species or system mouse (C57BL/6J).
Assay [5] deals with infarcted myocardial tissue. Description: MSC grafted in infarcted myocardial tissue, fluorescence of Dil-labeled MSC in LV sections. Also on record: species or system mouse (C57BL/6J). Particulars: Dil-labeled MSC pretreated 1 μM vs naive MSC. On the procedure: MSCs were pre-incubated for 24 hours with either PPARβ/δ antagonists GSK3787 (0.1 and 1 μM), PPARβ/δ inverse agonist GSK0660 (0.1 and 1 μM) or PPARβ/δ agonist GW0742 (0.1, 1 and 5 μM) before to be washed with PBS and used in co-cultures experiments or injected in the myocardium. When indicated, MSCs were labeled with the fluorescent cell-tracer CM-Dil (Molecular Probes). MSC were collected and suspended in 5 mL PBS containing CM-Dil (10^7 cells/10 μg) prior to be incubated at 37° C. for 5 minutes followed by 15 minutes at 4° C., in the dark. Labeled MSCs were washed 2 times in PBS, resuspended in PBS and maintained at 4° C. prior to be injected in the myocardium.
At the end of ex vivo experiments, left ventricles (LV) were fixated in formol and embedded in paraffin. Each left ventricle was cut from the apex through the base (4 μm sections each 150 μm). Paraffin-embedded sections were deparaffinised then rehydrated through an alcohol gradient. Sections were mounted in Mowiol (Biovalley). LV Sections were scanned by the Zeiss Axio Scan Z1 slide scanner (Zeiss, Oberkochen, Germany). Scanning was done with the ×20 objective. Images were analyzed using ImageJ.

On to `COC(=O)c1sccc1S(=O)(=O)Nc1ccc(Nc2ccccc2)cc1OC` [GSK0660], for which the “Specific DNA fragmentation (MSC resistance to oxidative stress)” value in assay [1] (MSC pretreated 24 h with 1 μM) is reported as “impaired MSC resistance against H2O2-induced oxidative without reaching significance”.
With `Cc1cc(SCc2sc(-c3ccc(C(F)(F)F)c(F)c3)nc2C)ccc1OCC(=O)O` [GW0742], the figures for the “Specific DNA fragmentation (MSC resistance to oxidative stress)” value in assay [1] (MSC pretreated 24 h with 0.1 μM) and in assay [1] (MSC pretreated 24 h with 1 μM) were “did not modify the capacity of MSC to resist against oxidative stress” and “enhanced significantly MSC resistance”, respectively. For the same compound, the “Decrease in infarct size” value in assay [2] stood at 54.6%. For the same compound, the TXNIP inhibition result in assay [3] is “inhibits TXNIP”. Further, the Infarct size entry in assay [4] is “same cardioprotective effect”. In addition, the “Percentage of fluorescence (MSC grafted in infarcted myocardium) increased by” value in assay [5] was 3.5 times.
